Earlier results in article PMC3880013, “Toward an Understanding of Agonist Binding to Human Orexin-1 and Orexin-2 Receptors with G-Protein-Coupled Receptor Modeling and Site-Directed Mutagenesis” (Biochemistry, 2013).
Where two headings read alike, the source gives them in different places. Marks after values point to notes of the source that are not given here. Where no end group is shown, it is not given here.

Experiments:
hOX1 V130A = hOX1 V130A (3.36) relative to wild type, [Ca2+]i response, ref 37 Malherbe et al., cited from earlier work
hOX1 F219A = hOX1 F219A (5.42) relative to wild type, [Ca2+]i response, ref 37 Malherbe et al., cited from earlier work
Excerpt: Other mutations had no major effect on efficacy. || We also explored the role of the conserved F^5.42. […] In the case of OX1, F^5.42 interacts with H26 of OxA that, based on the SDM experiments, has an only moderate impact on potency (see Figure 6A). This is in contrast to OX2 in which F^5.42 interacts with key residue I30 (see Figure 6B). Mutation of I30 of OxA to alanine complet ...

hOX1 A127T = hOX1 A127T (3.33) relative to wild type; [Ca2+]i response; ref 37 Malherbe et al.; cited from earlier work
Excerpt: (§1) Table 1 Comparison of the Effects of Different Mutations in hOX1 and hOX2 on the Binding Potencies of Orexin-A and Orexin-B ^a | column: hOX1 / ratio ^b of Orexin-A

hOX1 Q126A = hOX1 Q126A (3.32) relative to wild type; [Ca2+]i response; ref 37 Malherbe et al.; cited from earlier work
Excerpt: as §1

hOX1 Y348A = hOX1 Y348A (7.43) relative to wild type; [Ca2+]i response; ref 37 Malherbe et al.; cited from earlier work
Excerpt: as §1

hOX2 Q134A = system: hOX2 Q134A; parameters: method as in earlier work; settings: hOX2 Q134A (3.32) relative to wild type; [Ca2+]i response; ref 37 Malherbe et al.; cited from earlier work
hOX2 D211A = system: hOX2 D211A; parameters: method as in earlier work; settings: hOX2 D211A (45.51) relative to wild type, [Ca2+]i response, ref 37 Malherbe et al., cited from earlier work
hOX2 W214A = system: hOX2 W214A; parameters: method as in earlier work; settings: hOX2 W214A (45.54) relative to wild type, [Ca2+]i response, ref 37 Malherbe et al., cited from earlier work
hOX2 Y223A = system: hOX2 Y223A; parameters: method as in earlier work; settings: hOX2 Y223A (5.38) relative to wild type, [Ca2+]i response, ref 37 Malherbe et al., cited from earlier work
hOX2 F227A = settings: cited from earlier work; for ratio EC50(mut)/EC50(WT): hOX2 F227A (5.42) relative to wild type, [Ca2+]i response, ref 37 Malherbe et al.
Excerpt: In the case of OX1, F^5.42 interacts with H26 of OxA that, based on the SDM experiments, has an only moderate impact on potency (see Figure 6A). This is in contrast to OX2 in which F^5.42 interacts with key residue I30 (see Figure 6B). Mutation of I30 of OxA to alanine complet ...

hOX2 F228A = hOX2 F228A (5.43) relative to wild type; [Ca2+]i response; ref 37 Malherbe et al.; cited from earlier work
Excerpt: (§2) Table 1 Comparison of the Effects of Different Mutations in hOX1 and hOX2 on the Binding Potencies of Orexin-A and Orexin-B ^a | column: hOX2 / ratio ^b of Orexin-A

hOX2 I320A = hOX2 I320A (6.51) relative to wild type; [Ca2+]i response; ref 37 Malherbe et al.; cited from earlier work
Excerpt: as §2

hOX2 S139A = hOX2 S139A (3.37) relative to wild type; [Ca2+]i response; ref 37 Malherbe et al.; cited from earlier work
Excerpt: as §2

hOX2 T135A = hOX2 T135A (3.33) relative to wild type; [Ca2+]i response; ref 37 Malherbe et al.; cited from earlier work
Excerpt: as §2

hOX2 V138A = hOX2 V138A (3.36) relative to wild type; [Ca2+]i response; ref 37 Malherbe et al.; cited from earlier work
Excerpt: as §2

hOX2 V353A = hOX2 V353A (7.42) relative to wild type; [Ca2+]i response; ref 37 Malherbe et al.; cited from earlier work
Excerpt: as §2

hOX2 Y317F = hOX2 Y317F (6.48) relative to wild type; [Ca2+]i response; ref 37 Malherbe et al.; cited from earlier work
Excerpt: as §2

hOX2 Y354A = hOX2 Y354A (7.43) relative to wild type; [Ca2+]i response; ref 37 Malherbe et al.; cited from earlier work
Excerpt: as §2

hOX2 Y317A = settings: cited from earlier work; for ratio EC50(mut)/EC50(WT): hOX2 Y317A (6.48) relative to wild type, [Ca2+]i response, ref 37 Malherbe et al.
Excerpt: D211^45.51 is in the proximity of L19. L19 and L20 form hydrophobic interactions with W214^45.54 and H350^7.39, respectively. […] In the case of OX2, Y223^5.38 forms an interaction with H26 of OxA. F227^5.42 forms a ...

Substance: Orexin-A (QPLPDCCRQKTCSCRLYELLHGAGNHAAGILTL; ends and bridges not checked; cysteine pairing not given here; UniProt O43612 34-66, looked up) [hypothalamic neuropeptide, 33 amino acids, two intramolecular disulfide bonds C6-C12 and C7-C14; natural OX1/OX2 agonist]
- ratio EC50(mut)/EC50(WT) (hOX1 V130A): 30.6 ^c fold
- ratio EC50(mut)/EC50(WT) (hOX1 V130A; listed as OxA): 30.6 fold
- ratio EC50(mut)/EC50(WT) (hOX1 F219A): 139.6 ^c fold
- ratio EC50(mut)/EC50(WT) (hOX1 F219A; listed as OxA): 139.6 fold
- ratio EC50(mut)/EC50(WT) (hOX1 A127T): 1.8 ^c fold
- ratio EC50(mut)/EC50(WT) (hOX1 Q126A): 2.4 ^c fold
- ratio EC50(mut)/EC50(WT) (hOX1 Y348A): 8.7 ^c fold
- ratio EC50(mut)/EC50(WT) (hOX2 Q134A): 22.3 fold
- ratio EC50(mut)/EC50(WT) (hOX2 D211A): 416.1 ^c fold
- ratio EC50(mut)/EC50(WT) (hOX2 D211A; listed as OxA): 416.1 fold
- ratio EC50(mut)/EC50(WT) (hOX2 W214A): 62.4 ^c fold
- ratio EC50(mut)/EC50(WT) (hOX2 W214A; listed as OxA): 62.4 fold
- ratio EC50(mut)/EC50(WT) (hOX2 Y223A): 183.9 ^c fold
- ratio EC50(mut)/EC50(WT) (hOX2 Y223A; listed as OxA): 183.9 fold
- efficacy (reduced to) (hOX2 F227A; hOX2 F5.42 (F227) mutated to alanine): 64.3%
- ratio EC50(mut)/EC50(WT) (hOX2 F227A): 240.3 ^c fold
- ratio EC50(mut)/EC50(WT) (hOX2 F227A; listed as OxA): 240.3 fold
- ratio EC50(mut)/EC50(WT) (hOX2 F228A): 3.0 ^c fold
- ratio EC50(mut)/EC50(WT) (hOX2 I320A): 0.9 ^c fold
- ratio EC50(mut)/EC50(WT) (hOX2 S139A): 2.5 ^c fold
- ratio EC50(mut)/EC50(WT) (hOX2 T135A): 0.8 ^c fold
- ratio EC50(mut)/EC50(WT) (hOX2 V138A): 4.4 ^c fold
- ratio EC50(mut)/EC50(WT) (hOX2 V353A): 1.9 ^c fold
- ratio EC50(mut)/EC50(WT) (hOX2 Y317F): 1.3 ^c fold
- ratio EC50(mut)/EC50(WT) (hOX2 Y354A): 3.7 ^c fold
- ratio EC50(mut)/EC50(WT) (hOX2 Y317A): 17.7 ^c fold
- ratio EC50(mut)/EC50(WT) (hOX2 Y317A; listed as OxA): 17.7 fold
- relative Emax (decreases to) (hOX2 Y317A; hOX2 Y317A compared with WT): 49.6%
